# Legend:
# Type in all cases: functional
# [1] = system: SK-N-SH; assay: Effect on CRHR1 mRNA expression in human SK-N-SH cells at EC10 by qPCR method relative to beta-actin
# [2] = system: U-118-MG; assay: Effect on IL13 mRNA expression in human U118MG cells at EC10 by qPCR method relative to beta-actin
# [3] = system: SH-SY5Y; assay: Effect on CRHR1 mRNA expression in human SH-SY5Y cells at EC10 by qPCR method relative to beta-actin
# [4] = system: SK-N-SH; assay: Effect on C1S mRNA expression in human SK-N-SH cells at EC10 by qPCR method relative to beta-actin
# [5] = system: U-118-MG; assay: Effect on EDN1 mRNA expression in human U118MG cells at EC10 by qPCR method relative to beta-actin
# [6] = system: SK-N-SH; assay: Effect on IL2 mRNA expression in human SK-N-SH cells at EC10 by qPCR method relative to beta-actin
# [7] = system: SH-SY5Y; assay: Effect on LTA mRNA expression in human SH-SY5Y cells at EC10 by qPCR method relative to beta-actin
# [8] = system: U-118-MG; assay: Effect on IL18 mRNA expression in human U118MG cells at EC10 by qPCR method relative to beta-actin
# [9] = system: SK-N-SH; assay: Effect on IL13 mRNA expression in human SK-N-SH cells at EC10 by qPCR method relative to beta-actin
# [10] = system: SK-N-SH; assay: Effect on MAPK1 mRNA expression in human SK-N-SH cells at EC10 by qPCR method relative to beta-actin
# [11] = system: SH-SY5Y; assay: Effect on IL18 mRNA expression in human SH-SY5Y cells at EC10 by qPCR method relative to beta-actin
# [12] = system: SK-N-SH; assay: Effect on CXCL11 mRNA expression in human SK-N-SH cells at EC10 by qPCR method relative to beta-actin
# [13] = system: U-118-MG; assay: Effect on GRM2 mRNA expression in human U118MG cells at EC10 by qPCR method relative to beta-actin
# [14] = system: SH-SY5Y; assay: Effect on EDN1 mRNA expression in human SH-SY5Y cells at EC10 by qPCR method relative to beta-actin
# [15] = system: SH-SY5Y; assay: Effect on C1S mRNA expression in human SH-SY5Y cells at EC10 by qPCR method relative to beta-actin
# [16] = system: U-118-MG; assay: Effect on CSF1 mRNA expression in human U118MG cells at EC10 by qPCR method relative to beta-actin
# [17] = system: SK-N-SH; assay: Effect on PTGDR mRNA expression in human SK-N-SH cells at EC10 by qPCR method relative to beta-actin
# [18] = system: SH-SY5Y; assay: Effect on GRM7 mRNA expression in human SH-SY5Y cells at EC10 by qPCR method relative to beta-actin
# [19] = system: SK-N-SH; assay: Effect on APP mRNA expression in human SK-N-SH cells at EC10 by qPCR method relative to beta-actin
# [20] = system: SH-SY5Y; assay: Effect on CYP19A1 mRNA expression in human SH-SY5Y cells at EC10 by qPCR method relative to beta-actin
# [21] = system: SH-SY5Y; assay: Effect on CD44 mRNA expression in human SH-SY5Y cells at EC10 by qPCR method relative to beta-actin
# [22] = system: SK-N-SH; assay: Effect on RAF1 mRNA expression in human SK-N-SH cells at EC10 by qPCR method relative to beta-actin
# [23] = system: SH-SY5Y; assay: Effect on PTGDR mRNA expression in human SH-SY5Y cells at EC10 by qPCR method relative to beta-actin
# [24] = system: SK-N-SH; assay: Effect on GRM5 mRNA expression in human SK-N-SH cells at EC10 by qPCR method relative to beta-actin
# [25] = system: SH-SY5Y; assay: Effect on HDAC1 mRNA expression in human SH-SY5Y cells at EC10 by qPCR method relative to beta-actin
# [26] = system: U-118-MG; assay: Effect on PTGDR mRNA expression in human U118MG cells at EC10 by qPCR method relative to beta-actin
# [27] = system: U-118-MG; assay: Effect on HIF1A mRNA expression in human U118MG cells at EC10 by qPCR method relative to beta-actin
# [28] = system: U-118-MG; assay: Effect on OPRD1 mRNA expression in human U118MG cells at EC10 by qPCR method relative to beta-actin
# [29] = system: U-118-MG; assay: Effect on HLA-DRB1 mRNA expression in human U118MG cells at EC10 by qPCR method relative to beta-actin
# [30] = system: SK-N-SH; assay: Effect on HIF1 mRNA expression in human SK-N-SH cells at EC10 by qPCR method relative to beta-actin
# [31] = system: SK-N-SH; assay: Effect on GRM7 mRNA expression in human SK-N-SH cells at EC10 by qPCR method relative to beta-actin
# [32] = system: SH-SY5Y; assay: Effect on HLA-DRB1 mRNA expression in human SH-SY5Y cells at EC10 by qPCR method relative to beta-actin
# [33] = system: SK-N-SH; assay: Effect on CXCL9 mRNA expression in human SK-N-SH cells at EC10 by qPCR method relative to beta-actin
# [34] = system: U-118-MG; assay: Effect on TNFRSF1B mRNA expression in human U118MG cells at EC10 by qPCR method relative to beta-actin
# [35] = system: SH-SY5Y; assay: Effect on TNFRSF1B mRNA expression in human SH-SY5Y cells at EC10 by qPCR method relative to beta-actin
# [36] = system: SK-N-SH; assay: Effect on TNFRSF1B mRNA expression in human SK-N-SH cells at EC10 by qPCR method relative to beta-actin
# [37] = system: U-118-MG; assay: Effect on CCL5 mRNA expression in human U118MG cells at EC10 by qPCR method relative to beta-actin
# [38] = system: U-118-MG; assay: Effect on GRM4 mRNA expression in human U118MG cells at EC10 by qPCR method relative to beta-actin
# [39] = system: SK-N-SH; assay: Effect on CCL5 mRNA expression in human SK-N-SH cells at EC10 by qPCR method relative to beta-actin
# [40] = system: U-118-MG; assay: Effect on PLP1 mRNA expression in human U118MG cells at EC10 by qPCR method relative to beta-actin
# [41] = system: SK-N-SH; assay: Effect on TGFB1 mRNA expression in human SK-N-SH cells at EC10 by qPCR method relative to beta-actin
# [42] = system: SH-SY5Y; assay: Effect on CCL5 mRNA expression in human SH-SY5Y cells at EC10 by qPCR method relative to beta-actin
# [43] = system: SH-SY5Y; assay: Effect on SOD1 mRNA expression in human SH-SY5Y cells at EC10 by qPCR method relative to beta-actin
# [44] = system: U-118-MG; assay: Effect on CXCL9 mRNA expression in human U118MG cells at EC10 by qPCR method relative to beta-actin
structure (smiles),measurement,setting,value
CCCCCCCCn1nnnc1CCC(N)(CO)CO.Cl,fold change (FC),[1],4.6448
same,fold change (FC),[2],-5.9963
same,fold change (FC),[3],4.2103
same,fold change (FC),[4],-5.1582
same,fold change (FC),[5],5.5464
same,fold change (FC),[6],-4.9224
same,fold change (FC),[7],-2.54
same,fold change (FC),[8],-3.772
same,fold change (FC),[9],-6.6894
same,fold change (FC),[10],-10.5515
same,fold change (FC),[11],-3.9685
same,fold change (FC),[12],-3.5538
same,fold change (FC),[13],-3.2823
same,fold change (FC),[14],7.826
same,fold change (FC),[15],-2.6686
same,fold change (FC),[16],-4.2226
CCCCCCCCc1ccc(CCC(N)(CO)CO)cc1 [FINGOLIMOD],fold change (FC),[17],-4.3981
same,fold change (FC),[18],-5.361
same,fold change (FC),[19],-8.0801
same,fold change (FC),[20],-5.8869
same,fold change (FC),[21],-4.0629
same,fold change (FC),[22],-5.2666
same,fold change (FC),[23],-4.9331
same,fold change (FC),[24],-5.4523
same,fold change (FC),[25],-15.9446
same,fold change (FC),[26],-4.4856
same,fold change (FC),[27],-3.2716
same,fold change (FC),[28],3.818
same,fold change (FC),[29],-3.4313
same,fold change (FC),[30],-3.1808
same,fold change (FC),[31],-6.2306
CCCCCCCCn1nnnc1-c1ccc(C(O)CC(N)(CO)CO)cc1.Cl (centres undefined),fold change (FC),[32],-2.5613
same,fold change (FC),[33],-4.8484
same,fold change (FC),[34],-3.1207
same,fold change (FC),[35],-2.9117
same,fold change (FC),[36],-5.5404
same,fold change (FC),[37],-5.3124
same,fold change (FC),[38],-5.0773
same,fold change (FC),[39],-4.1626
same,fold change (FC),[40],3.4958
same,fold change (FC),[41],-5.3267
same,fold change (FC),[42],-3.3855
same,fold change (FC),[43],-3.4032
same,fold change (FC),[44],-4.1536

# Reference: ChEMBL document CHEMBL3872249, “Computer design, synthesis, and bioactivity analyses of drugs like fingolimod used in the treatment of multiple sclerosis” (Bioorg Med Chem, 2017)
